Results from US20210393642A1, “COMPOSITION FOR PREVENTING OR TREATING SJOGREN'S SYNDROME” (SAMJIN PHARMACEUTICAL CO., LTD., priority 2018, published 2021).

Key:
[1] = test system: IL-22; assay: Quantitative RT-PCR of mRNA in lacrimal and salivary gland tissues, IL-22; type: in vivo, mice; conditions: N=6
[2] = test system: IL-13; assay: Quantitative RT-PCR of mRNA in lacrimal and salivary gland tissues, IL-13; type: in vivo, mice; conditions: N=6
[3] = test system: IFN-α; assay: Quantitative RT-PCR of mRNA in lacrimal and salivary gland tissues, IFN-α; type: in vivo, mice; conditions: N=6
[4] = test system: BAFF; assay: Quantitative RT-PCR of mRNA in lacrimal and salivary gland tissues, BAFF; type: in vivo, mice; conditions: N=6
[5] = test system: disease model of Sjogren's syndrome (Nfkbiz^−/− or IkB-ξ-deficient mice, C57BL/6); assay: Tear production measurement (Schirmer test, phenol red thread); type: in vivo; conditions: oral, 80 mg/kg b.i.d, 5 weeks; versus control (Ctrl) group; N=11; FIG. 1
Experimental: Hereinafter, experiments for evaluating the anti-inflammatory effect and tissue regeneration effect of oral administration of the composition according to one embodiment of the present invention by using a disease model of Sjogren's syndrome (Nfkbiz^−/− or IkB-ξ-deficient mice, C57BL/6) will be described in detail.
Tear production was measured using a phenol red thread (Zone-Quick; Oasis, Glendora, Calif.) 1 minute after animal anesthesia. One end of the phenol red thread was placed against the lower eyelid of the lateral canthus of the animal eye and left to stand for 60 seconds. After the thread was soaked with tear by the capillary phenomenon, the length (mm) of the thread whose color changed was measured. When the amount of tear secretion decreases, dry eye caused by Sjogren syndrome symptoms is promoted. Thus, it was determined that the greater the amount of tear secretion, the greater the effect of the test substance.

[6] = test system: IL-17A; assay: Protein expression in lacrimal and salivary gland tissues (immunoblotting), IL-17A; type: in vivo, mice; conditions: dose of 100 mg/kg as printed; compared to control group; FIG. 3
Experimental: (§1) The lacrimal gland and salivary gland tissues of the test animals were isolated, placed in PBS, and homogenized on ice. 1 ml of RIPA lysis buffer (50 mM Tris-Cl pH7.4, 150 mM NaCl, 1 mM EDTA, 1% Triton X-100, 0.1% SDS, 1% sodium deoxycholate, 0.5 mM phenylmethylsulfonyl fluoride, 2 μg/ml leupeptin, 2 μg/ml aprotinin, 10 mM NaF, and 1 mM sodium orthovanadate) was added to each homogenized tissue which was then kept on ice for 5 minutes. Each tissue solution was then centrifuged (at 13000 rpm for 20 mins), and only the supernatant was collected, and then protein correction was performed. Samples were incubated with anti-Akt (1:400) and anti-interleukin 17A (1:200) antibodies and subjected to immunoprecipitation (IP) (overnight), followed by sampling. Each of the samples was subjected to SDS-PAGE and transferred to polyvinylidene fluoride (PVDF) membranes. Then, the Akt-IP-samples were incubated with phospho-Akt (S473) (diluted at 1:100,000 in blocking buffer (TBS+Tween20)+0.1% skim milk) at 4° C. overnight, and the IL-17A-IP-samples were incubated with IL-17A primary antibody (diluted at 1:100,000 in blocking buffer (TBS+Tween20)+0.1% skim milk) at 4° C. overnight. Next, the samples were incubated with HRP-conjugated secondary antibody, and then protein bands were visualized with ECL solution in the dark and quantified by exposure to X-ray films.

[7] = test system: IL-6; assay: Quantitative RT-PCR of mRNA in lacrimal and salivary gland tissues, IL-6; type: in vivo, mice; conditions: N=6
[8] = test system: IL-12; assay: Quantitative RT-PCR of mRNA in lacrimal and salivary gland tissues, IL-12; type: in vivo, mice; conditions: N=6
[9] = test system: TNF-α; assay: Quantitative RT-PCR of mRNA in lacrimal and salivary gland tissues, TNF-α; type: in vivo, mice; conditions: N=6
[10] = test system: anti-SSA/Ro; assay: Quantification (ELISA) of autoantibody anti-SSA/Ro in plasma; type: in vivo, mice
From the text: (§2) As markers of Sjogren's syndrome, anti-SSA/Ro (Signosis, #EA-5202, US) and anti-SSB/La (Signosis, #EA-5204, US), which are autoantibodies based on RNP particles, and interleukin-17A cytokine (Signosis, #EA-2516, US) which is involved in the onset of autoimmune diseases, were quantified by Enzyme-linked ImmunoSorbent Assay (ELISA) in order to determine the secretion and production of these markers in serum.

[11] = test system: IL-2; assay: Quantitative RT-PCR of mRNA in lacrimal and salivary gland tissues, IL-2; type: in vivo, mice; conditions: N=6, FIGS. 4a, 4b
[12] = test system: IL-17A; assay: Quantification (ELISA) of cytokine IL-17A in plasma; type: in vivo, mice; conditions: versus control, N=3, FIG. 5
From the text: as §2

[13] = test system: anti-SSB/La; assay: Quantification (ELISA) of autoantibody anti-SSB/La in plasma; type: in vivo, mice
From the text: as §2

[14] = test system: CXCL13; assay: Quantitative RT-PCR of mRNA in lacrimal and salivary gland tissues, CXCL13; type: in vivo, mice; conditions: N=6
[15] = test system: IL-17A; assay: Quantitative RT-PCR of mRNA in lacrimal and salivary gland tissues, IL-17A; type: in vivo, mice; conditions: N=6
[16] = test system: IL-21; assay: Quantitative RT-PCR of mRNA in lacrimal and salivary gland tissues, IL-21; type: in vivo, mice; conditions: N=6
[17] = test system: disease model of Sjogren's syndrome (Nfkbiz^−/− or IkB-ξ-deficient mice, C57BL/6); assay: Analysis of inflammatory phenotypes in animals (disease scores); type: in vivo; conditions: compared to control group, from 2 weeks after administration; N=11; FIG. 7
From the text: The degree of inflammation in the animal model was scored according to the following criteria and analyzed.
2: eyes with discharge that were difficult to open
3: periocular skin erosion
4: inflammation reaching perioral skin
5: erosion and loss of hair in whole face.

[18] = test system: IL-18; assay: Quantitative RT-PCR of mRNA in lacrimal and salivary gland tissues, IL-18; type: in vivo, mice; conditions: N=6
[19] = test system: FLT3L; assay: Quantitative RT-PCR of mRNA in lacrimal and salivary gland tissues, FLT3L; type: in vivo, mice; conditions: N=6
[20] = test system: interferon-g; assay: Quantitative RT-PCR of mRNA in lacrimal and salivary gland tissues, interferon-g; type: in vivo, mice; conditions: N=6
[21] = test system: p-AKT; assay: Protein expression in lacrimal and salivary gland tissues (immunoblotting), p-AKT; type: in vivo, mice; conditions: versus control, N=3, FIG. 3
Experimental: as §1

[22] = test system: CXCR5; assay: Quantitative RT-PCR of mRNA in lacrimal and salivary gland tissues, CXCR5; type: in vivo, mice; conditions: N=6
[23] = IkB-ξ-deficient male mice, 80 mg/kg, n = 3, vehicle = 100.0

O=C(NC(Cc1cc(=O)[nH]c2ccccc12)C(=O)OCCN1CCOCC1)c1ccc(Cl)cc1.O=C(O)CC(=O)O (stereo not drawn) [SA001, 2-(morpholin-4-yl)ethyl 2-(4-chlorobenzoylamino)-3-(2-oxo-1,2-dihydroquinolin-4-yl)propionate malonate]
IL-22 mRNA, decrease compared with control ([1]; lacrimal glands): 1.7 fold | IL-22 mRNA, decrease compared with control ([1]; salivary glands): 1.6 fold | IL-13 mRNA, decrease compared with control ([2]; lacrimal glands): 2 fold | IL-13 mRNA, decrease compared with control ([2]; salivary glands): 10 fold | IFN-α mRNA, decrease compared with control ([3]; lacrimal glands): 1.6 fold | IFN-α mRNA, decrease compared with control ([3]; salivary glands): 40 fold | BAFF mRNA, decrease compared with control ([4]; lacrimal glands): 1.6 fold | BAFF mRNA, decrease compared with control ([4]; salivary glands): not significant | tear production [5]: significantly increased | protein expression of IL-17A in the lacrimal gland and salivary gland tissues [6]: significantly decreased | IL-6 mRNA, decrease compared with control ([7]; lacrimal glands): 2 fold | IL-6 mRNA, decrease compared with control ([7]; salivary glands): 2.5 fold | IL-12 mRNA, decrease compared with control ([8]; lacrimal glands): 10 fold | IL-12 mRNA, decrease compared with control ([8]; salivary glands): not significant | TNF-α mRNA, decrease compared with control ([9]; lacrimal glands): 1.6 fold | TNF-α mRNA, decrease compared with control ([9]; salivary glands): 2.2 fold | SSA/Ro, No. (%) [10, 23]: 61.0 ± 8.7% | anti-SSA in plasma, decrease compared to control group ([10]; N=3, FIG. 5): 40% | IL-2 mRNA, decrease compared with control ([11]; lacrimal glands): 4.5 fold | IL-2 mRNA, decrease compared with control ([11]; salivary glands): 1.3 fold | IL-17A in plasma [12]: decreased | SSB/La, No. (%) [13, 23]: 67.9 ± 12.4% | anti-SSB in plasma, decrease compared to control group ([13]; N=3, FIG. 5): 30% | CXCL13 mRNA, decrease compared with control ([14]; lacrimal glands): 2.5 fold | CXCL13 mRNA, decrease compared with control ([14]; salivary glands): 5 fold | IL-17A mRNA, decrease compared with control ([15]; lacrimal glands): 2.8 fold | IL-17A mRNA, decrease compared with control ([15]; salivary glands): 3.3 fold | IL-21 mRNA, decrease compared with control ([16]; lacrimal glands): 1.6 fold | IL-21 mRNA, decrease compared with control ([16]; salivary glands): 20 fold | onset of the disease (disease score, inflammatory phenotype on five-point scale) [17]: significantly slowed | IL-18 mRNA, decrease compared with control ([18]; lacrimal glands): not significant | IL-18 mRNA, decrease compared with control ([18]; salivary glands): 1.6 fold | FLT3L mRNA, decrease compared with control ([19]; lacrimal glands): 2.5 fold | FLT3L mRNA, decrease compared with control ([19]; salivary glands): 13 fold | interferon-g mRNA, decrease compared with control ([20]; lacrimal glands): 1.3 fold | interferon-g mRNA, decrease compared with control ([20]; salivary glands): 1.3 fold | expression of p-AKT (activated form of Akt) [21]: significantly increased | CXCR5 mRNA, decrease compared with control ([22]; lacrimal glands): not significant | CXCR5 mRNA, decrease compared with control ([22]; salivary glands): 2.5 fold
